Laboratory results taken from patent US5128363A, “Trifluoromethoxy substituted 1,3,4,9-tetrahydropyrano-[3,4-b]indole-1-acetic acids” (American Home Products Corporation, priority 1990, dated 1992).

Columns and labels:
[1] = tested on: mice injected with a chemical irritant; test: Phenylbenzoquinone-induced Writhing in Mice; assay type: in vivo, Male Swiss albino mice; conditions: Mus musculus, po; for ED50: read-out: Phenylquinone Writhing in Mice, ED50
Method: A further test used to determine the utility of the compounds of the present invention is designated: Drug Effects on Phenylbenzoquinone-induced Writhing in Mice.
The objective of this test is to determine the ability of test drugs to inhibit the nociceptive (pain) response of mice injected with a chemical irritant. This test is a primary screen for both peripheral and centrally acting analgesic drugs.
Male Swiss albino mice (15-25 g). The animals are fasted for 18 hours prior to use but have free access to water.
Drug Preparation and Administration:
Drugs are dissolved or suspended according to their solubility in 0.5% Tween 80 in distilled water. They are administered by gastric gavage in a volume of 5 mL/kg. For primary screening all drugs are administered at the arbitary dosage of 10 mg/kg, p.o. to a group of 10 mice.
A modification of the method of Siegmund et al, Proc. Soc. Exp. Biol. Med., 95, 729-731 (1957) is used. Groups of 5 mice are dosed with the test compound or vehicle control. Sixty minutes later the animals are injected i.p. with 0.3 mL/20 g body weight of a 0.02% solution of phenylbenzoquinone (PBQ; 2-phenyl-1,4-benzoquinone) and placed in individual observation boxes. The number of writhing or abdominal squirming movements made by each mouse during the following 15 min. period is counted. The experiment is repeated with another group of 5 mice and the mean number of writhes per mouse for a group of 10 mice is calculated.
Drug treated and vehicle-treated control groups are compared and the percentage protection conferred by the drug is calculated: [formula] where c=mean number of writhes in the control group where t=mean number of writhes in the test drug group

[2] = tested on: rats injected intradermally in the left hind paw with Freund's complete adjuvant; test: Preventative Adjuvant Edema; assay type: in vivo, Male Sprague Dawley rats; conditions: Rattus norvegicus, po, 25 mg/kg p.o., edema volume day 3 vs day 0, read-out: Preventative Adjuvant Edema, percent inhibition
Method: This test is a primary screen for anti-inflammatory drugs.
Male Sprague Dawley rats (180-200 g) are used. The animals have free access to water but food is withdrawn 18 hours before testing.
Drug Preparations and Administration:
Freund's complete adjuvant is prepared by suspending 5 mg of killed and dried Mycobacterium butyricum (Difco) in 1 mL mineral oil. The test compounds are dissolved, or suspended in 0.5% Tween 80 in distilled water according to their solubility. For primary screening all drugs are administered by gastric gavage at the arbitrary dosage of 25 mg/kg, p.o. in a volume of 0.5 mL/100 g body weight to groups of 10 animals.
The method is essentially that described by Wax et al, J. Pharmacol. Exp. Ther., 192, 166-171 (1975). Groups of rats are injected intradermally in the left hind paw with 0.1 mL of Freund's complete adjuvant. […] The injected hind paw volume is measured before the injection of adjuvant and 24 hrs. after the last drug administration (day 3) by means of a plethysmometer (Buxco Electronics Inc.). […]
The mean edema volume (expressed as mL±SEM) is calculated for each group and the percentage protection conferred by the drug is calculated: [formula] where c is the mean edema volume for the vehicle-treated (0.5% Tween 80 in distilled water) controls and t is the means edema volume for the drug treated group.

[3] = tested on: rats with established adjuvant arthritis; test: Curative Adjuvant Arthritis; assay type: in vivo, Male inbred Wistar Lewis rats; conditions: for Injected Paw Edema / Non-Injected Paw Edema: change day 16 to day 25; for Body Weight Change: day 16 to day 25
Description: An additional test used to determine the utility of the compounds of the present invention is designated: Curative Adjuvant Arthritis. The objective of this test is to evaluate the ability of drugs to decrease edema in rats with established adjuvant arthritis in order to characterize further the anti-inflammatory activity of the compounds of the present invention. Species Male inbred Wistar Lewis rats with an initial body weight of 180-200 g were used. The animals had free access to food and water throughout the test. Drug Preparations and Administration Freund's Complete Adjuvant (FCA) was prepared by suspending 5 mg killed and dried Mycobacterium butyricum (Difco) in 1 mL mineral oil. The test compounds were dissolved, or suspended with a few drops of Tween 80, in distilled water according to their solubility. […] The volume of both hind paws were measured and body weight recorded at that time. On day 16 after FCA injection the volume of both hind paws were again measured. […] Mean body weight for each group was recorded. Drug or vehicle treatment was initiated on day 16. Animals were dosed daily from day 16 to day 25 (i.e. a total of […]). The volume of both hind paws and the body weight of the animal was recorded 2 hours after the last drug administration. Vehicle treated arthritic animals acted as a vehicle-treated control group and animals treated with etodolac (3 mg/kg po) acted as a positive control group. […] The ED50, or dose which causes such an effect in 50% animals, is calculated by probit analysis.

Row | Structure (SMILES) | ED50 [1] [mg/kg] | inhibition at 25 mg/kg [2] [%] | Injected Paw Edema ([3]; 0.3 mg/kg/day p.o.) | Non-Injected Paw Edema ([3]; 0.3 mg/kg/day p.o.) | Body Weight Change ([3]; 0.3 mg/kg/day p.o.) | Injected Paw Edema ([3]; 1 mg/kg/day p.o.) | Non-Injected Paw Edema ([3]; 1 mg/kg/day p.o.) | Body Weight Change ([3]; 1 mg/kg/day p.o.) | Injected Paw Edema ([3]; 3 mg/kg/day p.o.) [mL] | Non-Injected Paw Edema ([3]; 3 mg/kg/day p.o.) | Body Weight Change ([3]; 3 mg/kg/day p.o.) | inhibition at 10 mg/kg ([1]; 10 mg/kg p.o., read-out: Phenylquinone Writhing in Mice, percent inhibition) [%] | anti-inflammatory effect relative to etodolac ([3]; 1 mg/kg/day p.o.) | health as assessed by body weight gain ([3]; highest dose, 3 mg/kg/day) | potency relative to etodolac ([3]; more potent than etodolac, curative adjuvant arthritis)
1 | CCc1cccc2c3c([nH]c12)C(CC)(CC(=O)O)OCC3 (centres unmarked) [etodolac, reference compound] | 168 | 68 | +1.12 mL | +1.86 mL | -3 g | +0.40 mL | +1.14 mL | -9 g | -0.28 | +0.51 mL | +10 g | – | – | – | –
2 | CCC1(CC(=O)O)OCCc2c1[nH]c1cc(OC(F)(F)F)ccc21 (centres unmarked) [1-Ethyl-1,3,4,9-tetrahydro-7-(trifluoromethoxy)-pyrano[3,4-b]indole-1-acetic Acid] | 24 | 88 | +0.53 mL | +1.21 mL | +2 g | -0.18 mL | +0.35 mL | +2 g | -0.60 | +0.11 mL | +20 g | 47 | intermediate between that produced by 1 and 3 mg/kg etodolac | appeared healthy | approximately 2 fold
